# Laboratory results taken from US11246822B2, “Biomedical composition for skin care and/or maintenance and delaying and/or inhibiting skin aging and the use thereof” (INDUSTRIAL TECHNOLOGY RESEARCH INSTITUTE, priority 2019, dated 2022).
# Assays:
# [1] = Antioxidant degradation evaluation assay (iodometric titration of vitamin C); assay type: physicochemical; conditions: vitamin C 10 μg/ml
# Procedure: This assay was performed according to a method modified from the method shown by Roberts et al. (1997). First, a liquid sample containing a specific antioxidant at a concentration to be tested was prepared, and the liquid sample containing the specific antioxidant was added into a 250 mL Erlenmeyer flask by a pipette and deionized water was added the to the Erlenmeyer flask to reach the 100 mL scale mark. At the same time, 1 mL of 0.1 M sodium iodide (NaI) and 1 mL of 0.1 M hydrochloric acid (hydrogen chloride, HCl) and 1 mL of 2% starch aqueous solution (indicator) were added to the Erlenmeyer flask. Next, a burette was rinsed the with 0.025 M potassium iodate (KIO3) at least twice, first, and then filled with 0.025 M potassium iodate in a technique of avoiding bubble formation during the filling, and the initial volume of the solution (Vi) in the burette was record after the filling. Thereafter, the liquid sample containing the specific antioxidant mentioned above was titrated with 0.025 M potassium iodate. […] Depending on the condition, the titration operation mentioned above could be repeated two or three times, as appropriate. Finally, the specific antioxidant content could be calculated from the titration volume of potassium iodate.
# [2] = ABTS free radical scavenging assay; conditions: vitamin C 10 μg/ml, normal temperature
# Procedure: Antioxidant capacity of a sample to be tested was evaluate by ABTS (English full name: 2,2′-azinobis-3-ethyl benzothiazoline-6-sulphonic acid) free radical scavenging test. Since ABTS and potassium persulphate (K2S2O8) will produce an oxidation reaction and form a stable blue-green water-soluble ABTS⋅^+ radical ion with a maximum absorption peak at 734 nm, ABTS⋅^+ free radical concentration can be detected through A734 nm. When the ABTS⋅^+ radical solution is added with an antioxidant (radical scavenger), the original single radicals are paired, causing the ABTS⋅^+ radical solution to fade and the A734 nm absorption value to decrease, thereby evaluating Free radical scavenging ability of the antioxidant can be evaluated.
# The mixed solution was placed in a dark room at room temperature for 16 hours of reaction to form stable ABTS⋅^+ radical ions (blue-green), and then the mixed solution was diluted with deionized water to form a ABTS⋅^+ radical ion working solution with absorbance of 0.75±0.05 at 734 nm by a spectrophotometer.
# Next, a sample to be tested and standards (Trolox) with different concentrations were added to the ABTS⋅^+ radical ion working solution, respectively, and a group in which only deionized water was added was used as a control group. Absorbance at 734 nm was detected by a spectrophotometer after 20 minutes of reaction. Abilities to scavenge ABTS⋅+ radicals of the standards (Trolox) with different concentrations were plotted as a scavenging standard curve. The measured absorbance of the sample to be tested and the control group are converted according to the standard curve to know the free radical scavenging ability of the sample to be tested. The formula for calculating the scavenging ability is: (1-ABSsample/ABScontrol)×100.
# [3] = DPPH free radical scavenging assay; conditions: normal temperature; for DPPH free radical capture rate: vitamin C 10 μg/ml
# Procedure: DPPH is a stable free radical. When it is dissolved in methanol or ethanol, it will appear purple and has a strong absorbance at 515 nm. When the sample to be tested can directly react with DPPH radicals, it will block the […] reaction of DPPH free radicals. At this time, the DPPH solution which originally appeared blue-violet will turn into clear yellow, and the absorbance at 515 nm will decrease, and that means that the sample to be tested has an antioxidant component that captures DPPH free radicals. The lighter the color become, the stronger ability to capture DPPH free radicals the antioxidant component has, which means the better the antioxidant capacity of the sample to be tested has. This assay was performed according to a method modified from the method shown by Parejo et al (2003). Aqueous solution of the sample to be tested and standards (Glutathione) with different concentrations each 30 μl were added to the 96-well plate, respectively, and water was used as a blank control. Thereafter, 120 μl of 100 mM Tris-HCl buffer (pH 7.4) was added to the plate and then 150 μl of 500 μM DPPH (Sigma Sigma) ethanol solution was immediately added and uniformly mixed at room temperature and allowed to stand in the dark for 20 minutes. After that, absorbance at 515 nm was detected by a spectrophotometer. The more DPPH free radicals were scavenged, the more the absorbance value decreased. Ability of each sample to be tested to scavenge DPPH free radicals (also means the strength of the hydrogen supply capacity of the sample to be tested) can be determined by percentage of decrease in absorbance relative to the blank control group.
# [4] = room temperature (about 26° C.), 24 hours
compound,measurement,setting,value
"O=C1O[C@H]([C@@H](O)CO)C(O)=C1O [vitamin C, ascorbic acid]",vitamin C concentration decreased,"[1]; 40° C., 4 hours",20.4%
same,"vitamin C concentration, % of the initial concentration","[1]; 40° C., 24 hours",about 24.3%
same,"vitamin C concentration, % of the initial concentration","[1]; 40° C., 72 hours",3.3%
same,vitamin C concentration reduced / degraded,[1]; [4],62.6%
same,"vitamin C concentration, % of the initial concentration",[1]; [4],about 40%
same,"vitamin C concentration, % of the initial concentration","[1]; room temperature (about 26° C.), 72 hours",about 0.9%
same,ABTS radical ion scavenging rate,[2]; 0 hours,57.08%
same,ABTS radical ion scavenging rate,[2]; 72 hours,2.49%
same,ABTS radical ion scavenging rate,[2]; after 24 hours,22.45%
same,decrease of antioxidant capacity (DPPH),[3]; after 24 hours,about 60%
same,DPPH free radical capture rate,[3]; 0 hour,86.77%
same,DPPH free radical capture rate,[3]; 72 hours,2.99%
same,DPPH free radical capture rate,[3]; after 24 hours,34.67%
